Data from ChEMBL document CHEMBL3046451, “Design, synthesis, characterization, and in vitro antimicrobial action of novel trisubstituted s-triazines” (2012).
In brackets after ≈: the same amount, converted by molar mass.

What was measured:
[1] = system: Proteus vulgaris; experiment: Antibacterial activity against Proteus vulgaris MTCC 1771 after 24 hr by paper disk diffusion method; format: functional
[2] = system: Aspergillus niger; experiment: Antifungal activity against Aspergillus niger MTCC 282 after 24 hr by paper disk diffusion method; format: functional
[3] = system: Proteus vulgaris; experiment: Antibacterial activity against Proteus vulgaris MTCC 1771 after 24 hr by agar streak dilution method; format: functional; conditions: MTCC 1771, 24 h
[4] = system: Bacillus cereus; experiment: Antibacterial activity against Bacillus cereus MTCC 619 after 24 hr by agar streak dilution method; format: functional; conditions: MTCC 619, 24 h
[5] = system: Salmonella typhi; experiment: Antibacterial activity against Salmonella enterica subsp. enterica serovar Typhi MTCC 733 after 24 hr by agar streak dilution method; format: functional; conditions: MTCC 733, 24 h
[6] = system: Pseudomonas aeruginosa; experiment: Antibacterial activity against Pseudomonas aeruginosa MTCC 741 after 24 hr by agar streak dilution method; format: functional; conditions: MTCC 741, 24 h
[7] = system: Klebsiella pneumoniae; experiment: Antibacterial activity against Klebsiella pneumoniae MTCC 109 after 24 hr by paper disk diffusion method; format: functional
[8] = system: Shigella flexneri; experiment: Antibacterial activity against Shigella flexneri MTCC 1457 after 24 hr by paper disk diffusion method; format: functional
[9] = system: Pseudomonas aeruginosa; experiment: Antibacterial activity against Pseudomonas aeruginosa MTCC 741 after 24 hr by paper disk diffusion method; format: functional
[10] = system: Escherichia coli; experiment: Antibacterial activity against Escherichia coli MTCC 739 after 24 hr by paper disk diffusion method; format: functional
[11] = system: Candida albicans; experiment: Antifungal activity against Candida albicans MTCC 183 after 48 hr by agar streak dilution method; format: functional; conditions: MTCC 183, 48 h
[12] = system: Klebsiella pneumoniae; experiment: Antibacterial activity against Klebsiella pneumoniae MTCC 109 after 24 hr by agar streak dilution method; format: functional; conditions: MTCC 109, 24 h
[13] = system: Bacillus cereus; experiment: Antibacterial activity against Bacillus cereus MTCC 619 after 24 hr by paper disk diffusion method; format: functional
[14] = system: Aspergillus niger; experiment: Antifungal activity against Aspergillus niger MTCC 282 after 48 hr by agar streak dilution method; format: functional; conditions: MTCC 282, 48 h
[15] = system: Escherichia coli; experiment: Antibacterial activity against Escherichia coli MTCC 739 after 24 hr by agar streak dilution method; format: functional; conditions: MTCC 739, 24 h
[16] = system: Staphylococcus aureus; experiment: Antibacterial activity against Staphylococcus aureus MTCC 96 after 24 hr by agar streak dilution method; format: functional; conditions: MTCC 96, 24 h
[17] = system: Staphylococcus aureus; experiment: Antibacterial activity against Staphylococcus aureus MTCC 96 after 24 hr by paper disk diffusion method; format: functional
[18] = system: Shigella flexneri; experiment: Antibacterial activity against Shigella flexneri MTCC 1457 after 24 hr by agar streak dilution method; format: functional; conditions: MTCC 1457, 24 h
[19] = system: Candida albicans; experiment: Antifungal activity against Candida albicans MTCC 183 after 24 hr by paper disk diffusion method; format: functional
[20] = system: Salmonella typhi; experiment: Antibacterial activity against Salmonella enterica subsp. enterica serovar Typhi MTCC 733 after 24 hr by paper disk diffusion method; format: functional
[21] = system: Klebsiella pneumoniae; experiment: microbe, parasite or virus in culture; conditions: MTCC 109, 24 h, read-out: IZ
Description: Antibacterial activity against Klebsiella pneumoniae MTCC 109 at 50 ug/disk after 24 hr by paper disk diffusion method

[22] = system: Pseudomonas aeruginosa; experiment: microbe, parasite or virus in culture; conditions: MTCC 741, 24 h, read-out: IZ
Description: Antibacterial activity against Pseudomonas aeruginosa MTCC 741 at 50 ug/disk after 24 hr by paper disk diffusion method

[23] = system: Escherichia coli; experiment: microbe, parasite or virus in culture; conditions: MTCC 739, 24 h, read-out: IZ
Description: Antibacterial activity against Escherichia coli MTCC 739 at 50 ug/disk after 24 hr by paper disk diffusion method

[24] = system: Salmonella typhi; experiment: Antibacterial activity against Salmonella enterica subsp. enterica serovar Typhi MTCC 733 at 50 ug/disk after 24 hr by paper disk diffusion method; format: functional; conditions: MTCC 733, 24 h, read-out: IZ
[25] = system: Bacillus cereus; experiment: Antibacterial activity against Bacillus cereus MTCC 619 at 50 ug/disk after 24 hr by paper disk diffusion method; format: functional; conditions: MTCC 619, 24 h, read-out: IZ
[26] = system: Shigella flexneri; experiment: Antibacterial activity against Shigella flexneri MTCC 1457 at 50 ug/disc after 24 hr by paper disk diffusion method; format: functional; conditions: MTCC 1457, 24 h, read-out: IZ
[27] = system: Staphylococcus aureus; experiment: Antibacterial activity against Staphylococcus aureus MTCC 96 at 50 ug/disc after 24 hr by paper disk diffusion method; conditions: MTCC 96, 24 h, read-out: IZ
[28] = system: Proteus vulgaris; experiment: Antibacterial activity against Proteus vulgaris MTCC 1771 at 50 ug/disk after 24 hr by paper disk diffusion method; format: functional; conditions: MTCC 1771, 24 h, read-out: IZ
[29] = system: Candida albicans; experiment: Antifungal activity against Candida albicans MTCC 183 at 50 ug/disk after 24 hr by paper disk diffusion method; format: functional; conditions: MTCC 183, 24 h, read-out: IZ
[30] = system: Aspergillus niger; experiment: Antifungal activity against Aspergillus niger MTCC 282 at 50 ug/disk after 24 hr by paper disk diffusion method; format: functional; conditions: MTCC 282, 24 h, read-out: IZ

Row | Compound | inhibition zone (IZ) [1] | inhibition zone (IZ) [2] | MIC [3] | MIC [4] | MIC [5] | MIC [6] | inhibition zone (IZ) [7] | inhibition zone (IZ) [8] | inhibition zone (IZ) [9] | inhibition zone (IZ) [10] | MIC [11] | MIC [12] | inhibition zone (IZ) [13] | MIC [14] | MIC [15] | MIC [16] | inhibition zone (IZ) [17] | MIC [18] | inhibition zone (IZ) [19] | inhibition zone (IZ) [20] | also measured
1 | Cn1c(=O)cc(Oc2nc(NCc3ccccc3)nc(Nc3ccc(C#N)cc3)n2)c2ccccc21 | <5 mm | <5 mm | 50 µg/mL (≈ 105 µM) | 50 µg/mL (≈ 105 µM) | 50 µg/mL (≈ 105 µM) | 50 µg/mL (≈ 105 µM) | 15 mm | 6 mm | 7 mm | 9 mm | > 50 µg/mL | 12.5 µg/mL (≈ 26.3 µM) | 10 mm | > 50 µg/mL | 50 µg/mL (≈ 105 µM) | 12.5 µg/mL (≈ 26.3 µM) | 13 mm | 50 µg/mL (≈ 105 µM) | <5 mm | <5 mm | 
2 | Cn1c(=O)cc(Oc2nc(NCCc3cccs3)nc(Nc3ccc(C#N)cc3)n2)c2ccccc21 | 7 mm | 13 mm | 50 µg/mL (≈ 101 µM) | 25 µg/mL (≈ 50.4 µM) | 50 µg/mL (≈ 101 µM) | 50 µg/mL (≈ 101 µM) | 10 mm | 14 mm | 10 mm | 10 mm | 25 µg/mL (≈ 50.4 µM) | 50 µg/mL (≈ 101 µM) | 13 mm | 25 µg/mL (≈ 50.4 µM) | 50 µg/mL (≈ 101 µM) | 6.25 µg/mL (≈ 12.6 µM) | 15 mm | 25 µg/mL (≈ 50.4 µM) | 15 mm | 12 mm | 
3 | O=C(O)c1cn(C2CC2)c2cc(N3CCNCC3)c(F)cc2c1=O [CIPROFLOXACIN] |  |  | 1 µg/mL (≈ 3.02 µM) | 1 µg/mL (≈ 3.02 µM) | 1 µg/mL (≈ 3.02 µM) | 1 µg/mL (≈ 3.02 µM) |  |  |  |  |  | 1 µg/mL (≈ 3.02 µM) |  |  |  | 1 µg/mL (≈ 3.02 µM) |  | ≤ 3 µg/mL |  |  | zone of inhibition at 50 µg/disc [21]: 16 mm; zone of inhibition at 50 µg/disc [22]: 15 mm; zone of inhibition at 50 µg/disc [23]: 18 mm; zone of inhibition at 50 µg/disc [24]: 16 mm; zone of inhibition at 50 µg/disc [25]: 16 mm; zone of inhibition at 50 µg/disc [26]: 17 mm; zone of inhibition at 50 µg/disc [27]: 17 mm; zone of inhibition at 50 µg/disc [28]: 17 mm
4 | CC(=O)N1CCN(c2ccc(OCC3COC(Cn4ccnc4)(c4ccc(Cl)cc4Cl)O3)cc2)CC1 (centres undefined) [KETOCONAZOLE] |  |  |  |  |  |  |  |  |  |  | 1 µg/mL (≈ 1.88 µM) |  |  | ≤ 3 µg/mL |  |  |  |  |  |  | zone of inhibition at 50 µg/disc [29]: 17 mm; zone of inhibition at 50 µg/disc [30]: 16 mm
